Legend:
[1] = Long-term stability at 25° C./60% rh, content by HPLC; settings: for 5-methyl-(6S)-tetrahydrofolic acid (% w/w) / Pyrazino-s-triazine derivative of 4α-hydroxy-5-methyl-THF (MeFox) (% w/w) / 5-methyl-(6S)-tetrahydrofolic acid (% rel.): 25° C./60% rh; for Pyrazino-s-triazine derivative of 4α-hydroxy-5-methyl-THF (MeFox) (% w/w): major degradation product; for 5-methyl-(6S)-tetrahydrofolic acid (% rel.): relative to initial value
Description: (§1) Amorphous monosodium salt of 5-methyl-(6S)-tetrahydrofolic acid prepared according to Reference Example 6, crystalline calcium salt of 5-methyl-(6S)-tetrahydrofolic acid, prepared according to literature procedures (EP 1 044 975 B1) and crystalline sodium salt of 5-methyl-(6S)-tetrahydrofolic acid, prepared as disclosed in Example 1, were stored at 25° C./60% rh. The content of 5-methyl-(6S)-tetrahydrofolic acid remaining in the samples was measured by HPLC at periodic intervals (% w/w). The content of 5-methyl-(6S)-tetrahydrofolic acid remaining was also compared to the initial value at the time of preparation (% rel.). Additionally the content of the pyrazino-s-triazine derivative of 4α-hydroxy-5-methyl-THF (MeFox), a major degradation product, was measured by HPLC at periodic intervals and disclosed as absolute values (% w/w).

[2] = Long-term stability at 40° C./75% rh, content by HPLC; type: physicochemical; settings: for Pyrazino-s-triazine derivative of 4α-hydroxy-5-methyl-THF (MeFox) (% w/w): major degradation product; for 5-methyl-(6S)-tetrahydrofolic acid (% rel.): relative to initial value
Description: as §1, with “40° C./75%” for “25° C./60%”, “sample” for “samples”

[3] = purified/de-ionized water, room temperature, agitated and briefly sonicated
Description: The measurement of the kinetic solubility was conducted as described in the experimental part.
50 mg of crystalline sodium salt of 5-methyl-(6S)-tetrahydrofolic acid (according to Example 1) is weighed into a 4 ml glass vial with screw cap. Then 0.5 ml of purified/de-ionized water is added.
2.535 ml of purified/de-ionized water is added to the solid using an adjustable volumetric pipette. The mixture is vigorously agitated at room temperature and briefly sonicated.

| SMILES | 5-methyl-(6S)-tetrahydrofolic acid (% w/w) ([1]; 0 months) | Pyrazino-s-triazine derivative of 4α-hydroxy-5-methyl-THF (MeFox) (% w/w) ([1]; 0 months) | 5-methyl-(6S)-tetrahydrofolic acid (% rel.) ([1]; 0 months) | 5-methyl-(6S)-tetrahydrofolic acid (% w/w) ([1]; 3 months) | Pyrazino-s-triazine derivative of 4α-hydroxy-5-methyl-THF (MeFox) (% w/w) ([1]; 3 months) | 5-methyl-(6S)-tetrahydrofolic acid (% rel.) ([1]; 3 months) | 5-methyl-(6S)-tetrahydrofolic acid (% w/w) ([1]; 6 months) | Pyrazino-s-triazine derivative of 4α-hydroxy-5-methyl-THF (MeFox) (% w/w) ([1]; 6 months) | 5-methyl-(6S)-tetrahydrofolic acid (% rel.) ([1]; 6 months) | 5-methyl-(6S)-tetrahydrofolic acid (% w/w) ([2]; 0 months) | Pyrazino-s-triazine derivative of 4α-hydroxy-5-methyl-THF (MeFox) (% w/w) ([2]; 0 months) | 5-methyl-(6S)-tetrahydrofolic acid (% rel.) ([2]; 0 months) | 5-methyl-(6S)-tetrahydrofolic acid (% w/w) ([2]; 3 months) | Pyrazino-s-triazine derivative of 4α-hydroxy-5-methyl-THF (MeFox) (% w/w) ([2]; 3 months) | 5-methyl-(6S)-tetrahydrofolic acid (% rel.) ([2]; 3 months) | solubility (kinetic solubility) in water [3] | 5-methyl-(6S)-tetrahydrofolic acid (% w/w) ([1]; 9 months) | Pyrazino-s-triazine derivative of 4α-hydroxy-5-methyl-THF (MeFox) (% w/w) ([1]; 9 months) | 5-methyl-(6S)-tetrahydrofolic acid (% rel.) ([1]; 9 months) | 5-methyl-(6S)-tetrahydrofolic acid (% w/w) ([2]; 6 months) | further results |
| --- | --- | --- | --- | --- | --- | --- | --- | --- | --- | --- | --- | --- | --- | --- | --- | --- | --- | --- | --- | --- | --- |
| CN1c2c(nc(N)[nH]c2=O)NC[C@@H]1CNc1ccc(C(=O)N[C@@H](CCC(=O)[O-])C(=O)O)cc1.[Na+] [5-methyl-(6S)-tetrahydrofolic acid monosodium salt] | 84.9 % w/w | 0.43 % w/w | 100.0 % rel. | 60.6 % w/w | 2.60 % w/w | 71.3 % rel. | 63.2 % w/w | 2.75 % w/w | 74.5 % rel. | 84.9 % w/w | 0.43 % w/w | 100.0 % rel. | 61.6 % w/w | 2.79 % w/w | 72.6 % rel. |  |  |  |  |  |  |
| CN1c2c(nc(N)[nH]c2=O)NC[C@@H]1CNc1ccc(C(=O)N[C@@H](CCC(=O)[O-])C(=O)[O-])cc1.[Na+].[Na+] [sodium salt of 5-methyl-(6S)-tetrahydrofolic acid] | 82.3 % w/w | 0.07 % w/w | 100.0 % rel. | 80.0 % w/w | 1.01 % w/w | 97.3 % rel. | 78.6 % w/w | 1.31 % w/w | 95.5 % rel. | 82.3 % w/w | 0.07 % w/w | 100.0 % rel. | 78.6 % w/w | 1.52 % w/w | 95.6 % rel. | greater than 100 mg per 1 ml of water | 74.7 % w/w | 1.42 % w/w | 90.8 % rel. | 77.3 % w/w | stability over a long period of time compared to the crystalline calcium salt ([1]; summary of Tables 1 to 4 (25° C./60% rh and 40° C./75% rh)): comparable stability; Pyrazino-s-triazine derivative of 4α-hydroxy-5-methyl-THF (MeFox) (% w/w) ([2]; 6 months): 1.69 % w/w; 5-methyl-(6S)-tetrahydrofolic acid (% rel.) ([2]; 6 months): 94.0 % rel.; 5-methyl-(6S)-tetrahydrofolic acid (% w/w) ([2]; 9 months): 77.9 % w/w; Pyrazino-s-triazine derivative of 4α-hydroxy-5-methyl-THF (MeFox) (% w/w) ([2]; 9 months): 1.51 % w/w; 5-methyl-(6S)-tetrahydrofolic acid (% rel.) ([2]; 9 months): 94.7 % rel. |
| CN1c2c([nH]c(N)nc2=O)NC[C@@H]1CNc1ccc(C(=O)N[C@@H](CCC(=O)[O-])C(=O)[O-])cc1.[Ca+2] [calcium salt of 5-methyl-(6S)-tetrahydrofolic acid] | 80.7 % w/w | 0.20 % w/w | 100.0 % rel. | 79.0 % w/w | 0.84 % w/w | 97.9 % rel. | 77.7 % w/w | 0.90 % w/w | 96.3 % rel. | 80.7 % w/w | 0.20 % w/w | 100.0 % rel. | 78.5 % w/w | 1.01 % w/w | 97.2 % rel. | smaller than 10 mg per 1 ml of water | 78.5 % w/w | 0.85 % w/w | 97.3 % rel. | 78.0 % w/w | 5-methyl-(6S)-tetrahydrofolic acid (% w/w) ([1]; 12 months): 77.9 % w/w; Pyrazino-s-triazine derivative of 4α-hydroxy-5-methyl-THF (MeFox) (% w/w) ([1]; 12 months): 0.86 % w/w; 5-methyl-(6S)-tetrahydrofolic acid (% rel.) ([1]; 12 months): 96.5 % rel.; Pyrazino-s-triazine derivative of 4α-hydroxy-5-methyl-THF (MeFox) (% w/w) ([2]; 6 months): 0.96 % w/w; 5-methyl-(6S)-tetrahydrofolic acid (% rel.) ([2]; 6 months): 96.6 % rel.; 5-methyl-(6S)-tetrahydrofolic acid (% w/w) ([2]; 9 months): 78.8 % w/w; Pyrazino-s-triazine derivative of 4α-hydroxy-5-methyl-THF (MeFox) (% w/w) ([2]; 9 months): 0.93 % w/w; 5-methyl-(6S)-tetrahydrofolic acid (% rel.) ([2]; 9 months): 97.6 % rel.; 5-methyl-(6S)-tetrahydrofolic acid (% w/w) ([2]; 12 months): 77.8 % w/w; Pyrazino-s-triazine derivative of 4α-hydroxy-5-methyl-THF (MeFox) (% w/w) ([2]; 12 months): 0.95 % w/w; 5-methyl-(6S)-tetrahydrofolic acid (% rel.) ([2]; 12 months): 96.3 % rel. |
